The values below come from patent publication US12331046B2, “CTPS1 inhibitors and uses thereof” (Nimbus Clotho, Inc., priority 2020, dated 2025).

The test has as its target human CTPS1 (Homo sapiens (Human), UniProt P17812). Briefly: hCTPS1 biochemical assay (ADP-Glo). The settings on record: hCTPS1 25 nM, ATP 120 uM, UTP 160 uM, GTP 60 uM, L-Glutamine 100 uM, 25 degrees C.

Sequence of human CTPS1 (P17812 whole entry): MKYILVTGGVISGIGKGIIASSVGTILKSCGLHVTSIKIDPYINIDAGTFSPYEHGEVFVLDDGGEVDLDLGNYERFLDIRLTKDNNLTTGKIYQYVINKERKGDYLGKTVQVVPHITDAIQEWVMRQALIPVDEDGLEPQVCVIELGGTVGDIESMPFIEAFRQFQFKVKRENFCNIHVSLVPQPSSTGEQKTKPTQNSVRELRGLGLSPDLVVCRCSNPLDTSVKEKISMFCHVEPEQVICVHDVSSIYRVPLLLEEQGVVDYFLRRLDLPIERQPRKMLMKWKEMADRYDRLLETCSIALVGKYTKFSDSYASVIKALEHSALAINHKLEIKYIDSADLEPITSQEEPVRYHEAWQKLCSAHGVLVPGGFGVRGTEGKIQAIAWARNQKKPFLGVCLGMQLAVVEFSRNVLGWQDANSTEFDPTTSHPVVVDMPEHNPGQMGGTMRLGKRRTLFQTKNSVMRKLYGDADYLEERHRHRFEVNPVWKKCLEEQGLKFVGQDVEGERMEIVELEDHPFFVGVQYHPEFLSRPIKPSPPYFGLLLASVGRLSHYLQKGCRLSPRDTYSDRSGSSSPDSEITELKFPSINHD

By IC50 is commonly meant the midpoint of a concentration-inhibition curve. High values mean a need for much substance, low ones inhibition by little substance. `CCOc1cncc(-c2ccc(NC(=O)Cc3cc(NS(=O)(=O)C4CC4)ccn3)cc2)n1` [I-35] came in with an IC50 of under 100 nM.

Regarding `CCOc1cncc(-c2ccc(C(=O)NCc3cncc(NS(=O)(=O)C4CC4)c3)cc2)n1` [I-36], the IC50 was under 100 nM.

Regarding `CCOc1cncc(-c2ccc(C(=O)NCc3cc(NS(=O)(=O)C4CC4)cnn3)nc2)n1` [I-37, N-[(5-cyclopropanesulfonamidopyridazin-3-yl)methyl]-5-(6-ethoxypyrazin-2-yl)pyridine-2-carboxamide], the IC50 is under 100 nM.

In turn, `CCOc1cncc(-c2ccc(NC(=O)Cc3cc(NS(=O)(=O)C4CC4)ccn3)c(F)c2)n1` [I-39] displayed an IC50 of under 100 nM.

On to `CCOc1cncc(-c2ccc(NC(=O)Cc3cc(NS(=O)(=O)C4CC4)ccn3)nc2)n1` [I-40, 2-(4-(cyclopropanesulfonamido)pyridin-2-yl)-N-(5-(6-ethoxypyrazin-2-yl)pyridin-2-yl)acetamide], for which the IC50 is under 100 nM.

As to `O=C(NCc1cc(NS(=O)(=O)C2CC2)ccn1)c1ccc(-c2cncc(N3CCCC3)n2)cc1` [I-42], the 50% inhibitory concentration (IC50) fell in the range of 100 to 1000 nM.

`CCOc1cncc(-c2ccc3c(c2)CN(Cc2cc(NS(=O)(=O)C4CC4)ccn2)C3=O)n1` [I-43, N-(2-((5-(6-ethoxypyrazin-2-yl)-1-oxoisoindolin-2-yl)methyl)pyridin-4-yl)cyclopropanesulfonamide] displayed an IC50 of 100 to 1000 nM.

The molecule `CCOc1cncc(-c2ncc(C(=O)NCc3cc(NS(=O)(=O)C4CC4)ccn3)o2)n1` [I-44] showed a half-inhibitory concentration (IC50) of at least 1000 nM.

As for `COC1CN(c2cncc(-c3ccc(C(=O)NCc4cc(NS(=O)(=O)C5CC5)ccn4)cc3)n2)C1` [I-46], the IC50 is at least 1000 nM.

In turn, `CCOc1cncc(-c2ccc(C(=O)NCc3nsc(NS(=O)(=O)C4CC4)n3)cc2)n1` [I-48, N-((5-(cyclopropanesulfonamido)-1,2,4-thiadiazol-3-yl)methyl)-4-(6-ethoxypyrazin-2-yl)benzamide] had a 50% inhibitory concentration (IC50) of under 100 nM.

Regarding `CCOc1cncc(-c2ccc(C(=O)NCc3cccc(NS(=O)(=O)C(F)F)c3)cc2)n1` [I-49], the half-inhibitory concentration (IC50) is under 100 nM.

Consider `CCOc1cncc(-c2cnc(C(=O)NCc3cc(NS(=O)(=O)C4CC4)ccn3)s2)n1` [I-50], for which the IC50 is under 100 nM.

`CCOc1cncc(-c2ccc(C(=O)NCc3cc(NS(=O)(=O)C4CC4)cnn3)cc2)n1` [I-52, N-[(5-cyclopropanesulfonamidopyridazin-3-yl)methyl]-4-(6-ethoxypyrazin-2-yl) benzamide] showed an IC50 of under 100 nM.

As for `CCOc1cncc(-c2ccc(C(=O)NCc3cccc(NS(=O)(=O)C(F)(F)F)c3)nc2)n1` [I-53, 5-(6-ethoxypyrazin-2-yl)-N-[[3-(trifluoromethanesulfonamido)phenyl]methyl] pyridine-2-carboxamide], the half-inhibitory concentration (IC50) was under 100 nM.

`Cc1nc(C(=O)NCc2cc(NS(=O)(=O)C3CC3)ccn2)cnc1N1CCC[C@@H](C(F)(F)F)C1` [I-55] returned an IC50 of 100 to 1000 nM.

`CCOc1cncc(-c2cnc(C(=O)NCc3cc(NS(=O)(=O)C4CC4)ccn3)o2)n1` [I-56, N-((4-(cyclopropanesulfonamido)pyridin-2-yl)methyl)-5-(6-ethoxypyrazin-2-yl)oxazole-2-carboxamide] had a half-inhibitory concentration (IC50) of at least 1000 nM.

On to `CCOc1cncc(-c2nnc(C(=O)NCc3cc(NS(=O)(=O)C4CC4)ccn3)o2)n1` [I-57], for which the 50% inhibitory concentration (IC50) was at least 1000 nM.

For `CCOc1cncc(-c2ccc(C(=O)NCc3cc(NS(=O)(=O)C4CC4)ccn3)c(=O)[nH]2)n1` [I-59], the IC50 fell in the range of 100 to 1000 nM.

`CCC[C@@H]1CCN1c1ncc(C(=O)NCc2cc(NS(=O)(=O)C3CC3)ccn2)nc1C` [I-60, (R)—N-((4-(cyclopropanesulfonamido)pyridin-2-yl)methyl)-6-methyl-5-(2-propylazetidin-1-yl)pyrazine-2-carboxamide]: the IC50 was at least 1000 nM.

The molecule `CCOc1cncc(-c2ncc(C(=O)NCc3cccc(NS(=O)(=O)C(F)F)c3)s2)n1` [I-62, N-[[3-(difluoromethanesulfonamido)phenyl]methyl]-2-(6-ethoxypyrazin-2-yl)-1,3-thiazole-5-carboxamide] gave an IC50 of under 100 nM.
